Values quoted from earlier work in paper PMC7692329, “Inhibitory Effect of AB-PINACA, Indazole Carboxamide Synthetic Cannabinoid, on Human Major Drug-Metabolizing Enzymes and Transporters” (Pharmaceutics, 2020).
Where two headings read alike, the source gives them in different places.

Key:
[1] = tested on: CYP2B6; conditions: read-out: Ki, CYP2B6; cited from earlier work
[2] = tested on: CYP2C8; conditions: cited from earlier work
[3] = tested on: CYP2C9; conditions: cited from earlier work
[4] = tested on: CYP2C19; conditions: cited from earlier work
[5] = tested on: CYP2D6; conditions: read-out: Ki, CYP2D6; cited from earlier work
[6] = tested on: CYP3A4; conditions: cited from earlier work
[7] = child, chewing an AB-PINACA contaminated cigarette; cited from earlier work
[8] = tested on: UGT1A3; conditions: cited from earlier work
[9] = tested on: UGT2B7; design: method as in PMID 28287454; conditions: cited from earlier work
[10] = tested on: OCT1/2, OAT1/3, and OATP1B1/1B3; design: method as in PMID 31430908; conditions: cited from earlier work
[11] = tested on: UGT1A9; conditions: read-out: Ki, UGT1A9; noncompetitive inhibition; cited from earlier work
[12] = tested on: CES1; design: method as in PMID 25346527; conditions: 100 μM benzil, human liver microsomes; cited from earlier work
[13] = read-out: Ki, CYP3A4 (time-dependent), time-dependent inhibition

**Q.** With CC(C)C(NC(=O)c1nn(Cc2ccc(F)cc2)c2ccccc12)C(N)=O (stereo not shown) [AB-FUBINACA, N-(1-amino-3-methyl-1-oxobutan-2-yl)-1-(4-fluorobenzyl)-1H-indazole-3-carboxamide] as the molecule, how does the Ki [1] read?
**A.** 15 µM

**Q.** What about the Ki ([2]; read-out: Ki, CYP2C8) of the same molecule?
**A.** 19.9 µM

**Q.** And the Ki ([3]; read-out: Ki, CYP2C9)?
**A.** 13.1 µM

**Q.** What about the Ki ([4]; read-out: Ki, CYP2C19) of the same molecule?
**A.** 6.3 µM

**Q.** And the Ki [5]?
**A.** 20.8 µM

**Q.** What about the “inhibition of CYP3A4” value [6] of the same molecule?
**A.** did not inhibited

**Q.** With CC(C)C(NC(=O)c1nn(CCCCC(=O)O)c2ccccc12)C(N)=O (stereo not shown) [AB-PINACA pentanoic acid] as the molecule, how does the serum level [7] read?
**A.** 345 ng/mL

**Q.** Which IC50 [8] does the source give for O=C(c1cccc2ccccc12)c1cn(CCCCCF)c2ccccc12 [AM-2201] here?
**A.** 4.3 µM

**Q.** What about the IC50 [9] of the same molecule?
**A.** 10 µM

**Q.** What about the IC50 ([3]; read-out: IC50, CYP2C9) of the same molecule?
**A.** 3.9 µM

**Q.** What about the IC50 ([6]; read-out: IC50, CYP3A4) of the same molecule?
**A.** 4 µM

**Q.** For CCCCCn1nc(C(=O)NC23CC4CC(CC(C4)C2)C3)c2ccccc21 [APINACA, N-(1-adamantyl)-1-pentyl-1H-indazole-3-carboxamide], which “inhibition of transport activity of OCT1/2, OAT1/3, and OATP1B1/1B3” value [10] is on record?
**A.** did not inhibit

**Q.** And the Ki [6, 13]?
**A.** 4.5 µM

**Q.** What about the “kinact, CYP3A4” value ([6]; time-dependent inhibition) of the same molecule?
**A.** 0.04686 min⁻¹

**Q.** What about the “kinact/Ki, CYP3A4” value ([6]; time-dependent inhibition) of the same molecule?
**A.** 10.3 mL/µmol/min

**Q.** And the Ki [11]?
**A.** 5.9 µM

**Q.** Which results are given for CCc1ccc(C(=O)c2cn(CCCCCF)c3ccccc23)c2ccccc12 [EAM-2201]?
**A.** Ki ([8]; competitive inhibition): 2.4 µM; Ki ([2]; read-out: Ki, CYP2C8 (time-dependent), time-dependent inhibition): 0.54 µM; kinact, CYP2C8 ([2]; time-dependent inhibition): 0.0633 min⁻¹; Ki ([3]; read-out: Ki, CYP2C9 (time-dependent), time-dependent inhibition): 3 µM; kinact, CYP2C9 ([3]; time-dependent inhibition): 0.0462 min⁻¹; Ki ([4]; read-out: Ki, CYP2C19 (time-dependent), time-dependent inhibition): 3.8 µM; kinact, CYP2C19 ([4]; time-dependent inhibition): 0.0264 min⁻¹; Ki [6, 13]: 4.1 µM; kinact, CYP3A4 ([6]; time-dependent inhibition): 0.0250 min⁻¹; kinact/Ki, CYP3A4 ([6]; time-dependent inhibition): 6.9 mL/µmol/min

**Q.** With Cc1ccc(C(=O)c2cn(CCCCCF)c3ccccc23)c2ccccc12 [MAM-2201] as the molecule, how does the Ki [8] read?
**A.** 5 µM

**Q.** And the Ki ([3]; read-out: Ki, CYP2C9)?
**A.** 5.6 µM

**Q.** What about the Ki ([6]; read-out: Ki, CYP3A4) of the same molecule?
**A.** 5.4 µM

**Q.** Which “effect on formation of AB-PINACA carboxylic acid” value [12] does the source give for O=C(C(=O)c1ccccc1)c1ccccc1 [benzil] here?
**A.** abolished

**Q.** For CC[C@H]1OC(=O)[C@H](C)[C@@H](O[C@H]2C[C@@](C)(OC)[C@@H](O)[C@H](C)O2)[C@H](C)[C@@H](O[C@@H]2O[C@H](C)C[C@H](N(C)C)[C@H]2O)[C@](C)(OC)C[C@@H](C)C(=O)[C@H](C)[C@@H](O)[C@]1(C)O [clarithromycin], which “inactivation efficiency (kinact/Ki), CYP3A4” value ([6]; representative clinical CYP3A4-mediated drug interactions) is on record?
**A.** 2.8 mL/µmol/min
